Assay results from patent US9815788B2, “Anti-angiogenic compounds” (University College Dublin National University of Ireland, …, priority 2012, dated 2017).
Where a name gives a salt, the structure may show the parent alone.

What was measured:
[1] = system: zebrafish intersegmental vessels; assay: Quantification of intersegmental vessel number in zebrafish; assay type: in vivo; details: for inhibition of developmental angiogenesis of intersegmental vessels (number of intersegmental vessels): 10 μM, from 6 hpf; for dose-dependent inhibition of development of intersegmental vessels: decreasing doses 10, 7.5, 5 and/or 1 μM, HCl salt
In short: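 Zebrafish larvae were dechorionated by hand, euthanised, and fixed overnight at 4° C. in 4% PFA before being analysed. Following PBS washes, they were placed on depression slides and examined by epi-fluorescence on an Olympus SZX16 fluorescent microscope. Intersegmental vessels were counted, and the mean count was plotted for each drug.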

[2] = system: zebrafish hyaloid vasculature; assay: Quantification of primary hyaloid vasculature branch number in Tg(fli1:EGFP) zebrafish; assay type: in vivo; details: for inhibition of developmental angiogenesis of the hyaloid vasculature (number of primary hyaloid vessels): typically 10 μM or 5 μM, from 24 hpf, vs DMSO control; for dose-dependent inhibition of development of hyaloid vessels: decreasing doses 20, 10, 7.5, 5, 2.5, 1 and/or 0.5 μM, HCl salt
In short: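 Tg(fli1:EGFP) larvae raised at 28° C on a 14/10 hr light cycle, euthanised and fixed overnight in 4% PFA at 4° C. Dissected lenses imaged by epi-fluorescence; hyaloid vessel patterning compared with DMSO controls and the archetypal pattern.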

[3] = system: OE33P radio-sensitive oesophageal adenocarcinoma cells; assay: Surviving fraction (colony formation), OE33P; assay type: cell-based, human; details: 10 μM, 24 hours
Procedure: (§1) OE33P radio-sensitive and OE33R radio-resistant oesophageal adenocarcinoma cells were used to test the effects of the compounds 11B HCl and 11B CC11 HCl on cell survival. Cells were maintained in RPMI media supplemented with 10% foetal calf serum, penicillin (100 U/ml) and streptomycin (100 μg/ml). Cells were seeded in 6 well plates and left to incubate for 24 hours. The media was replaced with solutions containing 10 μM of 11B HCl, 11B CC11 HCl or fresh media as a control. After 24 hours of treatment, media was replaced. When control colonies had grown sufficiently large, the media was disposed and the cells washed with PBS. The cells were fixed with methanol and stained with crystal violet. The surviving fraction, the ability of the cells to form colonies was then determined.
as §1, with “replaced and cells were subjected to 2Gy radiation.” for “replaced.”, “Surviving” for “The surviving”
OE33P radio-sensitive and OE33R radio-resistant oesophageal adenocarcinoma cells were used to test the effects of the compounds 11B HCl and 11B CC11 HCl on cell survival. Cells were maintained in RPMI media supplemented with 10% foetal calf serum, penicillin (100 U/ml) and streptomycin (100 μg/ml). Cells were seeded in 6 well plates and left to incubate for 24 hours. […] Surviving fraction, the ability of the cells to form colonies was then determined.

[4] = system: OE33R radio-resistant oesophageal adenocarcinoma cells; assay: Surviving fraction (colony formation), OE33R; assay type: cell-based, human; details: 10 μM, 24 hours
Procedure: as §1
as §1, with “replaced and cells were subjected to 2Gy radiation.” for “replaced.”, “Surviving” for “The surviving”
as §1, with “hours. The cells were subjected to 2Gy irradiation and the media was” for “hours. The media was”, “crystal violet. Surviving fraction, the” for “crystal violet. The surviving fraction, the”

[5] = treated prior to 2Gy irradiation
[6] = treated following 2Gy irradiation

SMILES | inhibition of developmental angiogenesis of intersegmental vessels (number of intersegmental vessels) [1] | inhibition of developmental angiogenesis of the hyaloid vasculature (number of primary hyaloid vessels) [2] | surviving fraction ([3]; no irradiation) | surviving fraction [3, 5] | surviving fraction ([4]; no irradiation) | surviving fraction [4, 6] | surviving fraction [4, 5] | dose-dependent inhibition of development of intersegmental vessels [1] | dose-dependent inhibition of development of intersegmental vessels ([1]; listed as 11B-CC11 HCl) | dose-dependent inhibition of development of hyaloid vessels [2] | dose-dependent inhibition of development of hyaloid vessels ([2]; listed as 11B-CC11 HCl)
Cl.Oc1ccccc1/C=C\c1ccc2ccccc2n1 [Compound 11B_Z_HCl, (Z)-2-(2-(Quinolin-2-yl)vinyl) phenol HCl salt] | inhibit developmental angiogenesis of zebrafish intersegmental vessels in a statistically significant manner | inhibit developmental angiogenesis of the zebrafish hyaloid vasculature in a statistically significant manner |  |  |  |  |  |  |  |  | 
Oc1ccccc1/C=C/c1ccc2ccccc2n1 [11B HCl] |  |  | significantly reduce | significantly reduces | significantly reduce | significantly reduce | significantly reduce |  |  |  | 
C/C(=C\c1ccccc1O)c1ccc2ccccc2n1.Cl [Compound 11B_CC11_HCl, (E)-2-(2-Quinolin-2-yl-propenyl)-phenol HCl salt] | inhibit developmental angiogenesis of zebrafish intersegmental vessels in a statistically significant manner | inhibit developmental angiogenesis of the zebrafish hyaloid vasculature in a statistically significant manner | significantly reduce |  | significantly reduce | significantly reduce | significantly reduce | inhibit developmental angiogenesis of zebrafish intersegmental vessels in a dose-dependent statistically significant manner | dose-dependent effect | inhibit developmental angiogenesis of zebrafish hyaloid vasculature in a dose-dependent statistically significant manner | dose-dependent effect
